This passage reports IC50 results from ChEMBL document CHEMBL1158239, “Costaricine, a new antiplasmodial bisbenzylisoquinoline alkaloid from Nectandra salicifolia trunk bark” (J Nat Prod, 1996).

Test [1] relates to Plasmodium falciparum. Put plainly: Antimalarial activity against chloroquine-sensitive Plasmodium falciparum D6 as [3H]hypoxanthine uptake. The format is functional, organism-based.
Test [2] has as its system Plasmodium falciparum. Put plainly: Antimalarial activity against chloroquine-resistant Plasmodium falciparum W2 as [3H]hypoxanthine uptake. The format is functional, organism-based.

Values after ≈ are worked out from the molar mass of the structure shown.

As for `COc1ccc2c(c1O)[C@H](Cc1ccc(O)cc1)NCC2`, the half-inhibitory concentration (IC50) – broadly, the concentration needed to halve the response being measured – in the test on Plasmodium falciparum [1] was determined as 4.1 µg/mL (≈ 14.4 µM); with Plasmodium falciparum [2] it was 3.1 µg/mL (≈ 10.9 µM).
The matching figures for `COc1ccc2c(c1O)[C@H](Cc1ccc(O)cc1)N(C)CC2`: 4.09 µg/mL (≈ 13.7 µM) and 4.48 µg/mL (≈ 15 µM).
The matching figures for `COc1cc2c(cc1OC)-c1c(OC)c(OC)c(OC)c3c1[C@H](C2)NCC3`: 1.51 µg/mL (≈ 4.07 µM) and 1.75 µg/mL (≈ 4.71 µM).
The matching figures for `COc1cc2c(cc1O)C[C@H]1c3c(cc(OC)c(OC)c3-2)CCN1C`: 7.15 µg/mL (≈ 20.9 µM) and 2.7 µg/mL (≈ 7.91 µM).
With `COc1ccc2c(c1O)-c1c(OC)c(OC)cc3c1[C@H](C2)NCC3`, the IC50 came to 1.99 µg/mL (≈ 6.08 µM) in the test with Plasmodium falciparum [1] and 1.9 µg/mL (≈ 5.8 µM) with Plasmodium falciparum [2].
The matching figures for `COc1cc2c(cc1O)[C@H](Cc1ccc(O)cc1)N(C)CC2`: 2.73 µg/mL (≈ 9.12 µM) and 3.81 µg/mL (≈ 12.7 µM).
For `COc1cc2c(cc1OC)[C@]13CCN(C)[C@@H](C2)[C@@H]1CC(=O)C(OC)C3` (some centres not stated) the same measures were 7.1 µg/mL (≈ 20.6 µM) and 9.02 µg/mL (≈ 26.1 µM).
The matching figures for `COc1ccc(C[C@H]2c3cc(O)c(OC)cc3CCN2C)cc1O` [(S)-RETICULINE]: 5.8 µg/mL (≈ 17.6 µM) and 3.65 µg/mL (≈ 11.1 µM).
Regarding `C[C@@H]1CC[C@H]2[C@@H](C)C(=O)O[C@@H]3O[C@@]4(C)CC[C@@H]1[C@]32OO4` [ARTEMISININ], the IC50 in the test on Plasmodium falciparum [1] came out at 0.0041 µg/mL (≈ 0.0145 µM); in the test on Plasmodium falciparum [2], 0.0022 µg/mL (≈ 0.00779 µM).
As for `COc1cc2c(cc1O)C[C@H]1c3c(cc(O)c(OC)c3-2)CCN1C` [BOLDINE], the results for the IC50 in the test on Plasmodium falciparum [1] and in the test with Plasmodium falciparum [2] were 2.13 µg/mL (≈ 6.51 µM) and 1.47 µg/mL (≈ 4.49 µM), respectively.
For the molecule `COc1cc2c(cc1O)[C@@H](Cc1ccc(Oc3cc(C[C@H]4NCCc5cc(OC)c(O)cc54)ccc3OC)cc1)NCC2` [COSTARICINE], the IC50 in the test on Plasmodium falciparum [1] stood at 0.05 µg/mL (≈ 0.0858 µM); in the test on Plasmodium falciparum [2], 0.294 µg/mL (≈ 0.505 µM).
Consider `COc1cc2c(cc1O)C[C@H]1c3c(cc(OC)c(O)c3-2)CCN1C` [ISOBOLDINE], for which the IC50 in the test with Plasmodium falciparum [1] worked out at 0.668 µg/mL (≈ 2.04 µM); in the test on Plasmodium falciparum [2] it was 0.904 µg/mL (≈ 2.76 µM).
The matching figures for `COc1ccc2c(c1O)-c1c(OC)c(OC)cc3c1[C@H](C2)N(C)CC3` [ISOCORYDINE]: 1.9 µg/mL (≈ 5.57 µM) and 2.83 µg/mL (≈ 8.29 µM).
For `COc1cc2c(cc1O)C[C@@H]1NCCc3cc(OC)c(OC)c-2c31` [LAUROTETANINE] the same measures were 3.9 µg/mL (≈ 11.9 µM) and 2.53 µg/mL (≈ 7.73 µM).
For `COc1cc2c(cc1O)C[C@@H]1NCCc3cc(O)c(OC)c-2c31` [NORBOLDINE] the same measures were 1.24 µg/mL (≈ 3.96 µM) and 1.68 µg/mL (≈ 5.36 µM).
Turning to `C=C[C@H]1CN2CC[C@H]1C[C@H]2[C@H](O)c1ccnc2ccc(OC)cc12` [QUININE], the IC50 in the test with Plasmodium falciparum [1] amounted to 0.0157 µg/mL (≈ 0.0484 µM); in the test with Plasmodium falciparum [2] it was 0.0388 µg/mL (≈ 0.12 µM).
